Results reported in patent US10118902B2 (Sanford Burnham Prebys Medical Discovery Institute, priority 2014, dated 2018).

Molecular target: neurotensin receptor 1 (NTR1) (Homo sapiens (Human), UniProt P30989)
Experiment: NTR1 dose response, high-content imaging beta-arrestin-GFP assay in NTR1-U2OS cells
Assay type: cell-based
Settings: read-out: EC50

Chain of neurotensin receptor 1 (NTR1) (P30989 whole entry, species assumed): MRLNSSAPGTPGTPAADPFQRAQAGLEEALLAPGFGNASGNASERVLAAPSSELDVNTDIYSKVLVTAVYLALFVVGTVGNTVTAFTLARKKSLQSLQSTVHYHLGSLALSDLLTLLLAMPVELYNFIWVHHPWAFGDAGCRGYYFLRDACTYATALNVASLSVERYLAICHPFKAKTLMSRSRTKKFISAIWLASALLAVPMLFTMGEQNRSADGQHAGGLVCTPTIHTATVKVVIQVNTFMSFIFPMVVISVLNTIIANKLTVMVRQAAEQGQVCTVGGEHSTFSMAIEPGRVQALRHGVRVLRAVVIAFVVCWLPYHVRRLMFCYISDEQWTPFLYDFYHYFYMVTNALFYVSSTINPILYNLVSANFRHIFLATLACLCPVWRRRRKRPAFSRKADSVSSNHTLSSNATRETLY

Row | Structure (SMILES) | EC50 [nM]
1 | CN(CCN1CCOCC1)c1ccc2nc(C3(C)CC3)nc(N3CCC(c4ccccc4N4CCC4)CC3)c2c1 [Example 32, [4-[4-(2-azetidin-1-yl-phenyl)-piperidin-1-yl]-2-(1-methyl-cyclopropyl)-quinazolin-6-yl]-methyl-(2-morpholin-4-yl-ethyl)-amine] | > 10000
2 | COCCN(C)c1ccc2nc(C3CCC3)nc(N3CCC(c4ccccc4OC)CC3)c2c1 [Example 44] | 2000 to 10000
3 | COc1ccccc1C1CCN(c2nc(C3CC3)nc3ccc(N4CC[C@@H](OC)C4)cc23)CC1 [Example 83, (R)-2-cyclopropyl-4-(4-(2-methoxyphenyl)piperidin-1-yl)-6-(3-methoxypyrrolidin-1-yl)quinazoline] | < 500
4 | COc1ccccc1C1CCN(c2nc(C3CC3)nc3ccc(N(C)CCO)c(F)c23)CC1 [Example 132, 2-((2-cyclopropyl-5-fluoro-4-(4-(2-methoxyphenyl)piperidin-1-yl)quinazolin-6-yl)(methyl)amino)ethanol] | 500 to 2000
5 | COCCN(C)c1ccc2nc(C3(C)CC3)nc(N3CCC(c4ccccc4N(C)C)CC3)c2c1 [Example 26, [4-[4-(2-dimethylamino-phenyl)-piperidin-1-yl]-2-(1-methyl-cyclopropyl)-quinazolin-6-yl]-(2-methoxy-ethyl)-methyl-amine] | > 10000
6 | CN(CCO[Si](C)(C)C(C)(C)C)c1ccc2nc(C3(F)CC3)nc(N3CCC(c4ccccc4O)CC3)c2c1 [Example 224, 2-{1-[6-{[2-(tert-Butyl-dimethyl-silanyloxy)-ethyl]-methyl-amino}-2-(1-fluoro-cyclopropyl)-quinazolin-4-yl]-piperidin-4-yl}-phenol] | 2000 to 10000
7 | CN(C)c1ccccc1C1CCN(c2nc(C3(C(F)(F)F)CCC3)nc3ccc(N(C)CCN4CCOCC4)cc23)CC1 [Example 66, [4-[4-(2-dimethylamino-phenyl)-piperidin-1-yl]-2-(1-trifluoromethyl-cyclobutyl)-quinazolin-6-yl]-methyl-(2-morpholin-4-yl-ethyl)-amine] | > 10000
8 | CN(C)c1ccc2nc(C3CC3)nc(N3CCC(c4ccccc4N4CCC4)CC3)c2c1 [Example 3] | > 10000
9 | COc1ccccc1C1CCN(c2nc(C3CC3)nc3ccc(N4CCC(OC)CC4)cc23)CC1 [Example 77] | 2000 to 10000
10 | CCCN(C)c1ccc2nc(N(C)C)nc(N3CCC(c4ccccc4OC)CC3)c2c1 [Example 95, 4-(4-(2-methoxyphenyl)piperidin-1-yl)-N2,N2,N6-trimethyl-N6-propylquinazoline-2,6-diamine] | > 10000
11 | COc1ccccc1C1CCN(c2nc(C3CC3)nc3ccc(CN(C)C)cc23)CC1 [Example 86, {2-cyclopropyl-4-[4-(2-methoxy-phenyl)-piperidin-1-yl]-quinazolin-6-ylmethyl}-dimethyl-amine] | > 10000
12 | CN(C)c1ccccc1C1CCN(c2nc(C3(C)CCC3)nc3ccc(N(C)CCO)cc23)CC1 [Example 68, 2-{[4-[4-(2-dimethylamino-phenyl)-piperidin-1-yl]-2-(1-methyl-cyclobutyl)-quinazolin-6-yl]-methyl-amino}-ethanol] | 500 to 2000
13 | COc1ccccc1C1CCN(c2nc(C3CC3)nc3cc(C)c(N(C)CCO)cc23)CC1 [Example 117, 2-({2-cyclopropyl-4-[4-(2-methoxy-phenyl)-piperidin-1-yl]-7-methyl-quinazolin-6-yl}-methyl-amino)-ethanol] | < 500
14 | CN(C)c1ccccc1C1CCN(c2nc(C3(C(F)(F)F)CCC3)nc3ccc(N(C)CCO)cc23)CC1 [Example 65, 2-{[4-[4-(2-Dimethylamino-phenyl)-piperidin-1-yl]-2-(1-trifluoromethyl-cyclobutyl)-quinazolin-6-yl]-methyl-amino}-ethanol] | 2000 to 10000
15 | CN(C)c1ccccc1C1CCN(c2nc(C3(F)CCC3)nc3ccc(N(C)CCO)cc23)CC1 [Example 61, 2-{[4-[4-(2-dimethylamino-phenyl)-piperidin-1-yl]-2-(1-fluoro-cyclobutyl)-quinazolin-6-yl]-methyl-amino}-ethanol] | < 500
16 | CN(C)c1ccccc1C1CCN(c2nc(C3(F)CCC3)nc3ccc(N(C)CCN4CCOCC4)cc23)CC1 [Example 62, [4-[4-(2-dimethylamino-phenyl)-piperidin-1-yl]-2-(1-fluoro-cyclobutyl)-quinazolin-6-yl]-methyl-(2-morpholin-4-yl-ethyl)-amine] | 500 to 2000

The next lines start with the values.

Row | EC50 [nM] | Structure (SMILES)
17 | 500 to 2000 | CN(CCO)c1ccc2nc(C3(F)CC3)nc(N3CCC(c4ccccc4OCCF)CC3)c2c1 [Example 225, 2-[(2-(1-Fluoro-cyclopropyl)-4-{4-[2-(2-fluoro-ethoxy)-phenyl]-piperidin-1-yl}-quinazolin-6-yl)-methyl-amino]-ethanol]
18 | > 10000 | COc1ccccc1C1CCN(c2nc(C)c(CC(=O)N(C)CCO)c(C3CC3)n2)CC1 [Example 163, 2-{4-cyclopropyl-2-[4-(2-methoxy-phenyl)-piperidin-1-yl]-6-methyl-pyrimidin-5-yl}-N-(2-hydroxy-ethyl)-N-methyl-acetamide]
19 | > 10000 | CCCN(C)C(=O)Cc1cnc(C2CC2)nc1N1CCC(c2ccccc2OC)CC1 [Example 165, 2-{2-cyclopropyl-4-[4-(2-methoxy-phenyl)-piperidin-1-yl]-pyrimidin-5-yl}-N-methyl-N-propyl-acetamide]
20 | 500 to 2000 | COc1ccccc1C1CCN(c2nc(C3(F)CC3)nc3cc(Cl)c(N(C)CCO)cc23)CC1 [Example 172]
21 | > 10000 | COc1ccccc1C1CCN(c2nc(-c3ccccc3)nc3ccc(N(C)CCN4CCOCC4)cc23)CC1 [Example 147, {4-[4-(2-methoxy-phenyl)-piperidin-1-yl]-2-phenyl-quinazolin-6-yl}-methyl-(2-morpholin-4-yl-ethyl)-amine]
22 | 500 to 2000 | COc1nccnc1C1CCN(c2nc(C3(CF)CC3)nc3ccc(N(C)CCO)cc23)CC1 [Example 219, 2-({2-(1-Fluoromethyl-cyclopropyl)-4-[4-(3-methoxy-pyrazin-2-yl)-piperidin-1-yl]-quinazolin-6-yl}-methyl-amino)-ethanol]
23 | > 10000 | CCCN(C)c1ccc2nc(C3CC3)nc(NC3CCN(c4ccccc4OC)C3)c2c1 (stereo not drawn) [Example 155, 2-cyclopropyl-N4-(1-(2-methoxyphenyl)pyrrolidin-3-yl)-N6-methyl-N6-propylquinazoline-4,6-diamine]
24 | 500 to 2000 | COc1ccccc1C1CCN(c2nc(C3CC3)nc3ccc(N(C)CCO)c(F)c23)CC1 [Example 167, 2-({2-Cyclopropyl-5-fluoro-4-[4-(2-methoxy-phenyl)-piperidin-1-yl]-quinazolin-6-yl}-methyl-amino)-ethanol]
25 | 2000 to 10000 | COc1ccccc1C1CCN(c2nc(-c3ccccc3)nc3ccc(N(C)CCO)cc23)CC1 [Example 144, 2-({4-[4-(2-methoxy-phenyl)-piperidin-1-yl]-2-phenyl-quinazolin-6-yl}-methyl-amino)-ethanol]
26 | 500 to 2000 | COc1ccccc1C1CCN(c2nc(C3CC3)nc3cnc(N(C)CCN4CCOCC4)cc23)CC1 [Example 134, 2-cyclopropyl-4-(4-(2-methoxyphenyl)piperidin-1-yl)-N-methyl-N-(2-morpholinoethyl)pyrido[3,4-d]pyrimidin-6-amine]
27 | < 500 | COc1ccccc1C1CCN(c2nc(C3CC3)nc3ccc(N(C)CC(=O)O)cc23)CC1 [Example 179, ({2-Cyclopropyl-4-[4-(2-methoxy-phenyl)-piperidin-1-yl]-quinazolin-6-yl}-methyl-amino)-acetic acid]
